Results: patent publication US20090306214A1, “Use of Syk Tyrosine Kinase Inhibitors for the Treatment of Cell Proliferative Disorders” (priority 2006, published 2009)
Entries after “also recorded” stand apart in the source; their conditions may differ.

Key:
Jurkat cells = test: Jurkat cell survival after a seven day period (Syk-containing); assay type: cell-based; conditions: 50 μg/ml; seven days; FIG. 4
Procedure: FIG. 4 illustrates the effect of AV 61S and AV 74S on Jurkat cell survival after a seven day period;
(§1) The jurkat E6.1 line is a Syk-deficient line; in fact, AV 61S after 7 days has no effect on this cell line (i.e., neither apoptosis nor inhibition, see […]). […] The viability study has been performed after 24 and 48 hours of incubation, each time for 3 evaluations; within 1, 3 and 6 hours.

HL-60 cells [1] = test: Viability of HL-60 cells after 3 days, XTT method; assay type: cell-based, human
Excerpt: (§2) Secondly, the effect of compounds of the invention may be compared to the natural inhibitor of Syk, piceatannol.

human PBMC monocytes = test: Effect on human PBMC monocytes; assay type: cell-based; conditions: FIGS. 11 and 12
Excerpt: FIG. 12 illustrates the effect of AV 74S treatment on monocytes;
FIGS. 11 and 12 compare the effect of compounds of the invention—AV 61S and AV 74S—on human PBMC T and B cells (FIG. 11) versus human PBMC monocytes (FIG. 12). […] T cells contain ZAP-70, rather than Syk, but B lymphocytes do contain Syk. […] As such, the effect seen on the B and T cells is believed to be due to the activity on the B cells, not the T cells.

E6.1 Jurkat cells = test: E6.1 Jurkat (Syk-deficient) cell survival and viability; assay type: cell-based
Procedure: FIG. 18 illustrates, in comparison with cyclosporin-treated Jurkat cells, the viability of E6.1 Jurkat cells treated with differing concentrations of AV 61S or AV 74S after 24 hours; and
FIG. 19 illustrates, in comparison with cyclosporin-treated Jurkat cells, the viability of E6.1 Jurkat cells treated with differing concentrations of AV 61S or AV 74S after 48 hours.
as §1

PHA-activated PBMCs = test: Inhibition of PHA-activated PBMCs (lymphocyte proliferation, thymidine incorporation); assay type: cell-based, human; conditions: varying concentrations
HL-60 cells [2] = test: Apoptosis of HL-60 cells after 2 days; assay type: cell-based, human
Excerpt: as §2

[3] = Viability of HL-60 cells after 3 days, XTT method; assay type: cell-based, human; conditions: human, HL-60 cells
Excerpt: as §2

In the case of `CC(CO)OCC(C)OCC(C)OCC(C)OCC(C)OCC(C)OCC(C)OC[C@H](Cc1ccccc1)NC(=O)CCc1ccc(O)cc1` (stereo partly shown) [AV 61S], the “killing of Syk-containing Jurkat cells” value (Jurkat cells) is reported as roughly 100%, the “viability of HL-60 cells” value (HL-60 cells [1]; 50 μg/ml + Pic 10 μM) is reported as 97 % of control and the “viability of HL-60 cells” value (HL-60 cells [1]; 50 μg/ml + Pic 30 μM) is reported as 83 % of control. The “viability of HL-60 cells” value (HL-60 cells [1]; 50 μg/ml, no piceatannol) was 81 % of control, the “viability of HL-60 cells” value (HL-60 cells [1]; 100 μg/ml + Pic 10 μM) was 59 % of control and the “viability of HL-60 cells” value (HL-60 cells [1]; 100 μg/ml + Pic 30 μM) was 23 % of control. For the same compound, the “viability of HL-60 cells” value (HL-60 cells [1]; 100 μg/ml, no piceatannol) was 36 % of control, the “effect on monocytes as compared to T and B cells” value (human PBMC monocytes) was “more profound on monocytes” and the “viability of E6.1 Jurkat cells” value (E6.1 Jurkat cells; 24 and 48 hours of incubation, FIGS. 18 and 19) was “do not kill them”. The “effect on Syk-deficient Jurkat E6.1 cell survival” value (E6.1 Jurkat cells; after 7 days, FIG. 3) was “no effect; also recorded: lack of effect”, the “inhibitory effect on PHA-activated PBMCs” value (PHA-activated PBMCs; DMSO carrier, FIG. 1) was “inhibitory effect” and the “inhibitory effect on PHA-activated PBMCs” value (PHA-activated PBMCs; PBS carrier, FIG. 2) was “lesser inhibitory effect”.

For `Oc1cc(O)cc(/C=C/c2ccc(O)c(O)c2)c1` [piceatannol, reference compound], the “Apoptosis of HL-60 cells” value (HL-60 cells [2]; Pic. 10 μM alone) was 20%, the “Apoptosis of HL-60 cells” value (HL-60 cells [2]; Pic. 30 μM alone) was 33% and the viability at 3 days, 10 μM ([3]; Pic 10 μM alone) was 89%. The viability at 3 days, 30 μM ([3]; Pic 30 μM alone) was 79%.
